In patent US11596632B2, “JAK1 pathway inhibitors for the treatment of gastrointestinal disease” (Incyte Corporation, priority 2018, dated 2023):

Assay: Ex vivo colon permeation study (Ussing diffusion chamber / tube), LSC
Type: in vitro ADME, human
Settings: healthy and UC colon, 100 and 1000 nM, 1 h; LLOQ 2 times background (21 dpm)
Description: Methods: Compound 1 concentrations in plasma and feces (colonic surrogate) were determined following a single sustained release 25 mg oral dose (see, e.g., Example B, 25 mg SR composition). Compound 1 concentrations in plasma following a single 100 mg dose were also determined in a separate study (see, e.g., Example C for measuring concentrations of Compound 1 in plasma). Ex vivo study: Colon tissue samples from healthy and UC subjects (2/group) were mounted on a vertical Ussing diffusion chamber. [^14C]Compound 1 was applied to the apical side of the chamber at 100 and 1000 nM and incubated for 1 h. Samples were collected from the donor and receiver sides for determination of Compound 1 concentration. The colonic tissue was snap frozen for quantitative autoradiography.
A small piece of two colon samples from two healthy and UC subjects (total eight samples) were provided by Analytical Biological Services Inc. (Wilmington, Del.) and stored at −70° C. until use.
Dose formulations, i.e., 100 nM and 1000 nM, were prepared on the day of the experiment for all tissues in the study. [^14C]Compound 1 (1.06 mg) was dissolved in dimethyl sulfoxide (DMSO; 1.514 mL) to produce a 1 mM stock solution (0.7 mg/mL). […]
[^14C]Compound 1 concentrations in both donor and receiver sides were analyzed by LSC. The lower limit of quantitation (LLOQ) was determined as 2 times the background (21 dpm).

SMILES: N#CCC1(n2cc(-c3ncnc4[nH]ccc34)cn2)CN(C2CCN(C(=O)c3ccnc(C(F)(F)F)c3F)CC2)C1 [Compound 1, {1-{1-[3-Fluoro-2-(trifluoromethyl)isonicotinoyl]piperidin-4-yl}-3-[4-(7H-pyrrolo[2,3-d]pyrimidin-4-yl)-1H-pyrazol-1-yl]azetidin-3-yl}acetonitrile]
- radioactivity / concentration in basolateral side (receiver compartment): no Compound 1 related radioactivity was detected from the receiver side
